Results taken from article PMC9130538, “Amino acids in transmembrane helix 1 confer major functional differences between human and mouse orthologs of the polyspecific membrane transporter OCT1” (The Journal of Biological Chemistry, 2022).

What was measured:
human OCT1 = target: T1, human OCT1 (Homo sapiens, UniProt O15245); test: Cellular uptake by HEK293 cells overexpressing human OCT1 (wildtype); conditions: human versus mouse OCT1, stably transfected HEK293
T1 sequence (O15245 1-554): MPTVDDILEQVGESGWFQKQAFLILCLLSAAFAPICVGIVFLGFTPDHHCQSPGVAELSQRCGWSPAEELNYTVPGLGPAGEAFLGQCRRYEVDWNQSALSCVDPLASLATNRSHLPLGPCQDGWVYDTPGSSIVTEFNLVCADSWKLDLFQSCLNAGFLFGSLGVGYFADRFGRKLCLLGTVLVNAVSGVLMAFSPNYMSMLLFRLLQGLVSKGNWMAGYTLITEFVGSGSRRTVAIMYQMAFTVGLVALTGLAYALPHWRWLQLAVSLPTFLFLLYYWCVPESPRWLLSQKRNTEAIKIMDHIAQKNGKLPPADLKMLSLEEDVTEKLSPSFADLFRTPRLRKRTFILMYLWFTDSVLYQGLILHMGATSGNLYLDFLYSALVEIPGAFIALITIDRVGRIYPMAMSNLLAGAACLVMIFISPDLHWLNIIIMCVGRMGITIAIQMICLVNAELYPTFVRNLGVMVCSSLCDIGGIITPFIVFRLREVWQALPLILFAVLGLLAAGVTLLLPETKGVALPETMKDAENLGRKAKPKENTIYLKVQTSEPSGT
Procedure: Generation and characterization of these cell lines has been described in detail before ([34], [48], [49]). Cells were cultured in Dulbecco’s Modified Eagle’s Medium supplemented with 10% fetal bovine serum, 100 U/ml penicillin, and 100 μg/ml streptomycin at 37 °C and 5% CO2 and were passaged twice a week.
At 48 h prior to the experiment, 6 × 10^5 cells were seeded per well in 12-well plates. When using transiently transfected cells, 5 × 10^5 T-REx-293 cells (Life Technologies) were seeded per well in 12-well plates 72 h prior to the experiment, and they were transfected 24 h later as described previously. Twelve-well plates were precoated with poly-D-lysine.
(§1) Cellular uptake experiments were performed at 37 °C and pH 7.4 using HBSS supplemented with 10 mM Hepes (in the following referred to as HBSS+). Cells were washed with 1 ml prewarmed (37 °C) HBSS+, and the uptake was initiated by adding 400 μl of prewarmed HBSS+ containing the substrate. Uptake was allowed for exactly 2 min and afterward stopped by adding 2 ml ice-cold HBSS+. Cells were washed twice with 2 ml ice-cold HBSS+ and lysed with 80% acetonitrile supplemented with internal standard, 0.1 N NaOH/0.1% SDS, or radioimmunoprecipitation buffer for LC–MS/MS, liquid scintillation counting, or fluorescence spectroscopy detection, respectively. Intracellular substrate concentrations were measured as described in the following and were then normalized to the amount of total protein in the samples as measured using the bicinchoninic acid assay ([51]).
For LC–MS/MS quantification of intracellular substrate concentrations, the cell lysate was centrifuged at 16,000g for 15 min, and 350 μl of supernatant was evaporated to dryness under nitrogen flow at 40 °C. The sample was reconstituted with 200 μl 0.1% formic acid, and between 2 and 30 μl were injected into the LC–MS/MS system (Table S1).
An API4000 QTRAP tandem mass spectrometer with ESI interface (AB SCIEX) was used, coupled to a Shimadzu Nexera X2 UHPLC system with LC 30AD pumps and SiL 30AC autosampler (Shimadzu).
Intracellular concentrations of radioactively labeled substrates MPP^+ and TEA^+ were quantified using liquid scintillation counting. To this end, 400 μl cell lysate was transferred into a 20 ml scintillation vial, 9 ml Aquasafe 500 Plus liquid scintillator (both Zinsser Analytics) was added, and the sample was measured in the Scintillation Counter LS6500 (Beckman Coulter).
For both analyses, SPSS Statistics, version 28 (SPSS, Inc, IBM) was used.

[1] = human, estimated based on clinical data, ref [9]; cited from earlier work
mouse Oct1 Tyr36Cys = mouse Oct1 Tyr36Cys (Mus musculus, UniProt O08966, Y36C); conditions: stably transfected HEK293, increasing concentrations, 2 min
Procedure: (§2) Human–mouse chimeric OCT1 constructs were generated using the overlap extension method ([50]) and have been characterized before ([34]). […] All constructs were validated by capillary sequencing of the complete open reading frame of OCT1 before transfection into HEK293 cells.
(§3) For transient transfection of OCT1 constructs into HEK293 cells for uptake experiments, 5 × 10^5 T-REx-293 cells (Life Technologies) were seeded per well in 12-well plates precoated with poly-D-lysine. […] At 48 h later, transfection efficacy was assessed microscopically by visualizing the GFP signal of the cotransfected GFP vector, and the cells were subsequently used for uptake experiments. […]
as §1, with “Cells were washed with 1 ml prewarmed (37 °C) HBSS+, and the uptake was initiated by adding 400 μl of prewarmed HBSS+ containing the substrate. Uptake was allowed for exactly 2 min and afterward stopped by adding 2 ml ice-cold HBSS+.” left out, “([51]). […]” for “([51]).”

human OCT1 Cys36Tyr = target: T2, human OCT1 Cys36Tyr (Homo sapiens, UniProt O15245, C36Y); test: Uptake by HEK293 cells overexpressing Cys36Tyr human OCT1; type: cell-based; conditions: stably transfected HEK293, increasing concentrations, 2 min
T2 construct: expressed in transfected cells
Procedure: as §2, §3
as §1, with “Cells were washed with 1 ml prewarmed (37 °C) HBSS+, and the uptake was initiated by adding 400 μl of prewarmed HBSS+ containing the substrate. Uptake was allowed for exactly 2 min and afterward stopped by adding 2 ml ice-cold HBSS+.” left out, “([51]). […]” for “([51]).”

Sequence of mouse Oct1 Tyr36Cys (O08966 whole entry Y36C): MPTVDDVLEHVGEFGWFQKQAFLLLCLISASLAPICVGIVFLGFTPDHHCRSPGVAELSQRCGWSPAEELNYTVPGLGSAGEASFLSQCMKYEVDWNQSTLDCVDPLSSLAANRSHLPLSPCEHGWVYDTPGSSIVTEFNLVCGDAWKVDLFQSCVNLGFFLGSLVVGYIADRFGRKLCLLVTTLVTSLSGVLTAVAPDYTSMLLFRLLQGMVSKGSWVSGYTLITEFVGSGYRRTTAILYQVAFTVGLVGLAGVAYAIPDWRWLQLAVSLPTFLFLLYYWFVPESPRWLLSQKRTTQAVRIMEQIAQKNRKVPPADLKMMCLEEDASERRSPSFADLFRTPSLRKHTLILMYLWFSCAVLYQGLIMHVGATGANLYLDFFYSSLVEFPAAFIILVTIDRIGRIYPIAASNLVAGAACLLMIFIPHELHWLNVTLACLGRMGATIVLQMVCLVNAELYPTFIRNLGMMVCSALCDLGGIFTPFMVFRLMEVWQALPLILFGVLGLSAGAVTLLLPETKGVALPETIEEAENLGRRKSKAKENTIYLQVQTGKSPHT

SMILES	fold higher affinity (KM) of human than of mouse OCT1 (human OCT1)	clinically relevant (plasma) concentration [1]	effect of Tyr36Cys in mouse OCT1 on affinity (KM) (mouse Oct1 Tyr36Cys)	effect of Cys36Tyr in human OCT1 on affinity (KM) (human OCT1 Cys36Tyr)	fold lower affinity (KM) of human OCT1 than mouse Oct1 (higher affinity of mouse Oct1) (human OCT1)
CC(Cc1ccc(O)cc1)NCC(O)c1cc(O)cc(O)c1 (centres unmarked) [Fenoterol]	8.1 fold	2.18 nM			
CC(C)(C)NCC(O)c1cc(O)cc(O)c1 (centres unmarked) [Terbutaline]			did not affect	did not affect	more than sixfold higher affinity of mouse Oct1
